# Assay results published in patent US8124834B2, “Use of active cytokinin synthase gene” (Riken, priority 2006, dated 2012).
# Experiments:
# LOG protein [1] = molecular target: T1, LOG protein (Oryza sativa subsp. japonica, UniProt Q5ZC82); experiment: Detection of enzyme activity of recombinant LOG protein with cytokinin substrates (HPLC); assay type: biochemical; parameters: the protein coding region of the LOG gene cDNA was inserted into pCOLD-I (TaKaRa), a His-tag protein expression vector; made in house; host or cells: E. coli BL21(DE3)[pG-Tf2]; settings: 3 μg LOG protein, 50 μM substrate, pH7, 30° C., 2 hours, HPLC absorption at 270 nm
# T1 sequence (Q5ZC82 1-242): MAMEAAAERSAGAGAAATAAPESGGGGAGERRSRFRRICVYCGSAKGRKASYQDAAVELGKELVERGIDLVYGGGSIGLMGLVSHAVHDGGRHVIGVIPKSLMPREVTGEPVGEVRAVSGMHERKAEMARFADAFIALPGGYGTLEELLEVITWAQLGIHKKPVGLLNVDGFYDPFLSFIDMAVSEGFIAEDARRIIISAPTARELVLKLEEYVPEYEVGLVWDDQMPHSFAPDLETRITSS
# Procedure: The following 8 types of cytokinin substrates were used: N^6-(delta-2-isopentenyl)adenine (iP), trans-zeatin (tZ), cis-zeatin (cZ), iP riboside (iPR), tZ riboside (tZR), cZ riboside (cZR), iPR 5′-monophosphate (iPRMP), and tZR 5′-monophosphate (tZRMP). As reaction conditions, 100 μl of a reaction solution containing 50 mM Tris-HCl, 1 mM MgCl2, and a 50 μM substrate, pH7 was incubated at 30° C. for 2 hours. Thereafter, 10 μl of 20% acetic acid was added to the reaction solution to terminate the reaction, and the reaction solution was then centrifuged at 15,000 rpm at a room temperature for 20 minutes. […] For elution, solvent C (100% acetonitrile) and solvent D (2% acetic acid) were used.
# LOG protein [2] = molecular target: T1, LOG protein; experiment: Substrate specificity of LOG protein to nucleotide cytokinin forms and AMP; assay type: biochemical; parameters: the protein coding region of the LOG gene cDNA was inserted into pCOLD-I (TaKaRa), a His-tag protein expression vector; made in house; host or cells: E. coli BL21(DE3)[pG-Tf2]; settings: 0.02 μg LOG protein, 100 μM substrate, pH 6.5, 4 minutes (iPRDP, iPRTP: 0.01 μg, 2 minutes)
# Procedure: The reaction specificity of the LOG protein to a nucleotide cytokinin form was analyzed. […] The following 7 types of substrates were used: iPRMP, tZRMP, dihydrozeatin riboside 5′-monophosphate (DZRMP), cZR 5′-monophosphate (cZRMP), iPR 5′-diphosphate (iPRDP), iPR 5′-triphosphate (iPRTP), and AMP. The reaction conditions are as follows. 0.02 μg of the LOG protein was used for a single reaction, and it was reacted with a 100 μM substrate in 200 μl of a reaction solution containing 50 mM Tris-HCl, 1 mM MgCl2, 1 mM DTT, pH 6.5. Thereafter, 0 minute and 4 minutes after initiation of the reaction, 600 μl of cold acetone was added to the reaction solution to terminate the reaction. The reaction solution was left at rest at −80° C. for 30 minutes, and it was then centrifuged at 15,000 rpm for 20 minutes. Thereafter, a supernatant was dried using a centrifugal thickener. […] Only the injection amount was changed to 50 μl. In the case of iPRDP and iPRTP, the amount of a reaction solution was determined to be 100 μl, the mass of a protein used was determined to be 0.01 μg, and the reaction time was determined to be 2 minutes.
# LOG protein [3] = molecular target: T1, LOG protein; experiment: Measurement of Km value of LOG protein to iPRMP and tZRMP; assay type: biochemical; parameters: the protein coding region of the LOG gene cDNA was inserted into pCOLD-I (TaKaRa), a His-tag protein expression vector; made in house; host or cells: E. coli BL21(DE3)[pG-Tf2]; settings: 0.02 μg LOG protein; for specific activity of the LOG protein: substrate 5-100 μM, pH 6.5
# Procedure: In order to obtain the Km value of the LOG protein to typical substrates iPRMP and tZRMP, the following experiment was carried out. 0.02 μg of LOG protein was used for a single reaction, and it was reacted with a substrate in a substrate concentration of each of 5, 8, 15, 30 and 100 μM in 200 μl of a reaction solution containing 50 mM Tris-HCl, 1 mM MgCl2, 1 mM DTT, pH 6.5. Thereafter, 0 minute, 2 minutes and 4 minutes after initiation of the reaction, 600 μl of cold acetone was added to the reaction solution to terminate the reaction. The reaction solution was left at rest at −80° C. for 30 minutes, and it was then centrifuged at 15,000 rpm for 20 minutes. Thereafter, a supernatant was dried using a centrifugal thickener. The resultant was dissolved in 100 μl of 2% acetic acid, and a reaction product was then detected and quantified under the same conditions as those for the liquid chromatography of Example 2. Only the injection amount was changed to 50 μl. The aforementioned experiment was carried out three times, and the Km value was calculated.
# [4] = tested on: AtLOG 1, 2, 3, 4, 5, 7 and 8 proteins; experiment: Confirmation of LOG enzyme activity of Arabidopsis thaliana LOG homolog proteins (substrate specificity); assay type: biochemical; settings: purified AtLOG 1, 2, 3, 4, 5, 7 and 8 proteins, result stated for all together
# Procedure: 3 μg of the recombinant LOG protein obtained in Example 1 was allowed to react with various types of cytokinins used as substrates. The following 8 types of cytokinin substrates were used: N^6-(delta-2-isopentenyl)adenine (iP), trans-zeatin (tZ), cis-zeatin (cZ), iP riboside (iPR), tZ riboside (tZR), cZ riboside (cZR), iPR 5′-monophosphate (iPRMP), and tZR 5′-monophosphate (tZRMP). As reaction conditions, 100 μl of a reaction solution containing 50 mM Tris-HCl, 1 mM MgCl2, and a 50 μM substrate, pH7 was incubated at 30° C. for 2 hours. Thereafter, 10 μl of 20% acetic acid was added to the reaction solution to terminate the reaction, and the reaction solution was then centrifuged at 15,000 rpm at a room temperature for 20 minutes. Thereafter, 20 μl of a supernatant was analyzed by liquid chromatography using HPLC (Waters Alliance 2695/PDA detector 2996). As a column, Symmetry C18, 3.5 μm, 2.1×100 mm cartridge (Waters) was used. For elution, solvent C (100% acetonitrile) and solvent D (2% acetic acid) were used.
# The reaction specificity of the LOG protein to a nucleotide cytokinin form was analyzed. At the same time, the presence or absence of the reactivity of the LOG protein to AMP was also analyzed. […] The resultant was dissolved in 100 μl of 2% acetic acid, and the reaction product was then detected and quantified under the same conditions as those for the liquid chromatography of Example 2. […] In the case of iPRDP and iPRTP, the amount of a reaction solution was determined to be 100 μl, the mass of a protein used was determined to be 0.01 μg, and the reaction time was determined to be 2 minutes.
# The enzyme activity of each of the purified AtLOG proteins was evaluated under the same reaction conditions as those of Example 2. […] In addition, the enzyme property of each AtLOG protein to iPRMP was determined in the same manner as in Example 5 (Table 4). In Table 4, the Km, Vmax and Kcat values were calculated based on a reaction under the optimal pH condition of each AtLOG protein.
# LOG protein [5] = molecular target: T1, LOG protein; settings: 3 μg LOG protein, 5 mM L-lysine, pH 6.0, 40° C., 60 minutes, HPLC absorption at 226 nm
# Source text: As a column, Symmetry C18, 3.5 μm, 2.1×100 mm cartridge (Waters) was used.
SMILES,reactivity of the substrate with recombinant LOG protein (conversion to base form) (LOG protein [1]),reactivity of LOG protein to the substrate (substrate specificity) (LOG protein [2]),"Km (LOG protein [3]; substrate 5, 8, 15, 30 and 100 μM, pH 6.5, experiment carried out three times) [µM]",specific activity of the LOG protein (LOG protein [3]) [μmol/min^−1/mg^−1 protein],reactivity of AtLOG proteins to the substrate (substrate specificity) [4],reactivity of LOG protein to lysine (LOG protein [5])
"C/C(=C\CNc1ncnc2c1ncn2[C@@H]1O[C@H](COP(=O)(O)O)[C@@H](O)[C@H]1O)CO (relative stereo) [tZRMP, trans-zeatin riboside 5′-monophosphate]",completely converted,uses as a substrate,22 ± 3.6,4.2,–,–
Nc1ncnc2c1ncn2[C@@H]1O[C@H](COP(=O)(O)O)[C@@H](O)[C@H]1O [AMP],–,no reactivity,–,–,almost no reactivity,–
"CC(C)=CCNc1ncnc2c1ncn2[C@@H]1O[C@H](COP(=O)(O)OP(=O)(O)O)[C@@H](O)[C@H]1O [iPRDP, iPR 5′-diphosphate]",–,no reactivity,–,–,almost no reactivity,–
"CC(C)=CCNc1ncnc2c1ncn2[C@@H]1O[C@H](COP(=O)(O)O)[C@@H](O)[C@H]1O [iPRMP, isopentenyladenine riboside 5′-monophosphate]",completely converted,uses as a substrate,–,5.6,–,–
"CC(C)=CCNc1ncnc2c1ncn2[C@@H]1O[C@H](COP(=O)(O)OP(=O)(O)OP(=O)(O)O)[C@@H](O)[C@H]1O [iPRTP, iPR 5′-triphosphate]",–,no reactivity,–,–,almost no reactivity,–
"NCCCC[C@H](N)C(=O)O [lysine, L-lysine]",–,–,–,–,–,did not exhibit reactivity
